The target of assay [1] is Transitional endoplasmic reticulum ATPase (Homo sapiens, UniProt P55072, C522A). As to the kind of experiment: Luminescence counterscreen assay for p97 inhibitors: dose response biochemical high throughput screening assay to identify inhibitors of the C522A mutant p97 ATPase: synthesized compounds. [Related pubchem assays: 1481, 1517, 1551 ].
In assay [2] the target is Transitional endoplasmic reticulum ATPase (Homo sapiens, UniProt P55072). In words: Luminescence dose response biochemical high throughput screening assay for inhibitors of the p97 ATPase: synthesized compounds. [Related pubchem assays: 1481, 1517 ].
Sequence of Transitional endoplasmic reticulum ATPase (Homo sapiens, UniProt P55072) (P55072 whole entry): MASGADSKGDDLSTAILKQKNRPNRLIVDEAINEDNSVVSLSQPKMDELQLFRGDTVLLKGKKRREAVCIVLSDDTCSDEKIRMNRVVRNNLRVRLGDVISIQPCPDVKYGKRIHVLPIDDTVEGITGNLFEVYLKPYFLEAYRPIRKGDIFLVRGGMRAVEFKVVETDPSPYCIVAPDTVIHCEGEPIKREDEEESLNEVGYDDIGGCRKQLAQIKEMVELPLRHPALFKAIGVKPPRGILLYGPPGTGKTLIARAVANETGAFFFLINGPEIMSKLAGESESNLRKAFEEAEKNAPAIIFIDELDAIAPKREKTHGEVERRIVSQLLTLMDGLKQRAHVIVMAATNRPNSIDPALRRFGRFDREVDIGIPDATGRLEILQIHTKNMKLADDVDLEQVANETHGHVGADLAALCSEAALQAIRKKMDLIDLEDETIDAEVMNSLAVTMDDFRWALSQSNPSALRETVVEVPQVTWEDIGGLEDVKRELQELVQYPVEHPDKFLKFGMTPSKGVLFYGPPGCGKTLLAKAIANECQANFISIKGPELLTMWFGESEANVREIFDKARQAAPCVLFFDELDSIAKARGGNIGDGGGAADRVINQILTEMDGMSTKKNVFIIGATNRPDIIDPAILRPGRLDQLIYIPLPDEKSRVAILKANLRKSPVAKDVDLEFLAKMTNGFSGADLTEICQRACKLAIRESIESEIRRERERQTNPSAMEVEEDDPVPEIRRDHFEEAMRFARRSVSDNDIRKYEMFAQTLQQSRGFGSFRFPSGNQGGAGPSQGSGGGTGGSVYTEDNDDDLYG
Assay [3] deals with T1, Tyrosine-protein phosphatase non-receptor type 7 (Homo sapiens, UniProt P35236).
T1 sequence (P35236 whole entry): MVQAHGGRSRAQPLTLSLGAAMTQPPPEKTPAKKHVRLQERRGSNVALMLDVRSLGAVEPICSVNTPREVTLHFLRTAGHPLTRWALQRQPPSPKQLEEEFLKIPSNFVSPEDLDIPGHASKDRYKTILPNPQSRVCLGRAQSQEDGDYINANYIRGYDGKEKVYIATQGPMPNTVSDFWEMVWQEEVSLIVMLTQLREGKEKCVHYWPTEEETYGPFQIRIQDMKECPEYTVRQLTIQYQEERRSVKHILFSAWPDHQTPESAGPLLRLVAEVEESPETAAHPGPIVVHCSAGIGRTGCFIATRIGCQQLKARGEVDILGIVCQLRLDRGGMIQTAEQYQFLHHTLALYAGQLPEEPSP
As to the kind of experiment: HePTP tyrosine phosphatase activity blockers – biochemical, absorbance, leukemia target, primary screen (AID 521). Format: functional.

For assay [4], the system named is Vero. As to the kind of experiment: Vero cell viability after compound exposure – synthesized analogs, set II, cytotoxicity control for West Nile virus antiviral project, SAR follow-up (AID 2402). Format: functional. Particulars: Chlorocebus sabaeus.
In assay [5] the target is Epstein-Barr nuclear antigen 1 (Epstein-Barr virus (strain B95-8) (HHV-4) (Human herpesvirus 4), UniProt P03211). As to the kind of experiment: inhibition of EBV nuclear antigen 1 DNA binding – biochemical, fluorescence polarization, 1536-well, dose response (AID 2381).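 Further: fluorescence polarization of a Cy5 DNA probe bound by EBNA-1 protein.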 Set-up: species or system human gammaherpesvirus 4. For orientation: Polarisation of emitted light reports the rotation of a fluorescent probe.
Sequence of Epstein-Barr nuclear antigen 1 (P03211 whole entry): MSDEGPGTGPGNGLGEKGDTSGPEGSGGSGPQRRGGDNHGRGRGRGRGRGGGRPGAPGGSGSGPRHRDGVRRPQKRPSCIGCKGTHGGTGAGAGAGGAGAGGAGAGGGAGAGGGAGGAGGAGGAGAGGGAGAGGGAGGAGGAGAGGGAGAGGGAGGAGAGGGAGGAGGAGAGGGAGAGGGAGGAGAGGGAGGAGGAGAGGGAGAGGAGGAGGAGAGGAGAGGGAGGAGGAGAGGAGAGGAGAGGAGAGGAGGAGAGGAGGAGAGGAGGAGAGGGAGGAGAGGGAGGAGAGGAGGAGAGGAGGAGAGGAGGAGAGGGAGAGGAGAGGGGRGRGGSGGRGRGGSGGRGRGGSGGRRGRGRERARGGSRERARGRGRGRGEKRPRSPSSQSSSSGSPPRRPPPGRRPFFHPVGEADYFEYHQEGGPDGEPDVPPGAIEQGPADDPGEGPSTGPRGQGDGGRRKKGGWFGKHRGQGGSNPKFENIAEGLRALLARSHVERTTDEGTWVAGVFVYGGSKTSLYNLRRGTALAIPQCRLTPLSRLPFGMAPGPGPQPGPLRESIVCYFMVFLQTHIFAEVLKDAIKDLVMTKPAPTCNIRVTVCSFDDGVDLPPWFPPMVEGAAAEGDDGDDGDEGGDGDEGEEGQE

Assay [6] addresses Lytic switch protein BZLF1 (Epstein-Barr virus (strain B95-8) (HHV-4) (Human herpesvirus 4), UniProt P03206). In words: inhibition of BZLF1 ZTA DNA binding – biochemical, fluorescence polarization, Epstein-Barr virus, 1536-well, counter-screen for EBNA-1 inhibitor project, dose response (AID 2377).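 Further: fluorescence polarization of Cy5-labelled ZRE DNA probe bound by purified Zta.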 Also on record: species or system human gammaherpesvirus 4.
In assay [7] the target is T2, Streptokinase A (Streptococcus pyogenes serotype M1, UniProt P10520).
T2 sequence (P10520 whole entry): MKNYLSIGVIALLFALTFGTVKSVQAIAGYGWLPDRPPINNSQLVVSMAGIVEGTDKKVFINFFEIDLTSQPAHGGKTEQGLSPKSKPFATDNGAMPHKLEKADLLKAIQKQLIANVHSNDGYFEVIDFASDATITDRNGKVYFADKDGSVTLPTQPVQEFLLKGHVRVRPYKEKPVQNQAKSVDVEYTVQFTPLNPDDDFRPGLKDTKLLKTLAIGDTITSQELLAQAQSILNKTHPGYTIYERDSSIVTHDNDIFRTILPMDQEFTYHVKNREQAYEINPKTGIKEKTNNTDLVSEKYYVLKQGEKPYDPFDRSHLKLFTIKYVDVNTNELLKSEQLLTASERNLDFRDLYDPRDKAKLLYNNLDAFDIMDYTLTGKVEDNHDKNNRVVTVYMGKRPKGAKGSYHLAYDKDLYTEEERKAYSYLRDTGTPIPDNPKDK
As to the kind of experiment: Absorbance Microorganism-Based Dose Response Follow up to Identify Inhibitors of Streptokinase Expression. [Related pubchem assays: 1677 (Project Summary), 1915, 1914, 1902 (Retest at Dose), 1900 (Counter Screen), 1662 (Primary HTS)]. Format: functional, Streptococcus pyogenes M1 GAS.

Assay [8] deals with Streptococcus. As to the kind of experiment: GAS bacterial viability reduction – luminescence, BacTiter-Glo, strain UMAA2166, counter-screen for streptokinase expression inhibitor project, dose response (AID 2477). Format: functional, organism-based.

Active and inactive are the calls of the source. Unless noted, the calls are words filed in the database; no cut-off is given here. Bounds are passed on as bounds.

Sequence of Transitional endoplasmic reticulum ATPase (Homo sapiens, UniProt P55072, C522A) (P55072 2-806 C522A limits assumed): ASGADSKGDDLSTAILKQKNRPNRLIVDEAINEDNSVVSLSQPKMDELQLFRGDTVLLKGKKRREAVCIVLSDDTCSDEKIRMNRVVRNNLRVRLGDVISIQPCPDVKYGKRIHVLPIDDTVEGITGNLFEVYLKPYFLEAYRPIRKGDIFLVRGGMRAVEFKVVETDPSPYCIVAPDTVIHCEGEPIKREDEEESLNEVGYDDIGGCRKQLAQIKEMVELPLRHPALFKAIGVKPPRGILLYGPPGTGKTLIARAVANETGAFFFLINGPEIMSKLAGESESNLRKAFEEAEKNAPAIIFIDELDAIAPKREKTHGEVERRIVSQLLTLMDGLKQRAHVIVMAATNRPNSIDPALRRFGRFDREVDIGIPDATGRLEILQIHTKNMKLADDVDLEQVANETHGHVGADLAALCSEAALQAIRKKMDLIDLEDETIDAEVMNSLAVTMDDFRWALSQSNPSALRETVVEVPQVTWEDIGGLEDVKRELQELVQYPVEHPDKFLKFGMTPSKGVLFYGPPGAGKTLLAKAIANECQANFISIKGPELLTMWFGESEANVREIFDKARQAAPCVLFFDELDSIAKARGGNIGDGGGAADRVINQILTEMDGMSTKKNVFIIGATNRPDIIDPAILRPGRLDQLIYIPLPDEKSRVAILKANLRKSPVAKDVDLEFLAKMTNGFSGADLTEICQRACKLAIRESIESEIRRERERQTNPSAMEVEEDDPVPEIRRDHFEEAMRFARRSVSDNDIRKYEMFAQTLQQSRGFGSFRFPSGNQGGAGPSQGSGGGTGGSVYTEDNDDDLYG
Sequence of Lytic switch protein BZLF1 (P03206 whole entry): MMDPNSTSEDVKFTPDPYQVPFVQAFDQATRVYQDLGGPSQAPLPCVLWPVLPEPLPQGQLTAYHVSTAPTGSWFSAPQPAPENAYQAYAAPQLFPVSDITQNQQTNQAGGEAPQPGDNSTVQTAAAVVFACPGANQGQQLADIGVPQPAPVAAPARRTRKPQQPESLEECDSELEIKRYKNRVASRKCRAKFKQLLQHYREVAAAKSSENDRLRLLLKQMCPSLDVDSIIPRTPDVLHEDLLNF

For orientation: IC50 means the concentration that inhibits the measured activity by half. Higher therefore signals weaker potency in that assay. Regarding `CCOC(=O)/C(C#N)=C/c1ccc([N+](=O)[O-])cc1`, the IC50 in assay [1] and in assay [2] was > 50 µM (not active) each time. For `COc1ccccc1C(=O)Nc1ccccc1C(=O)N1CCCC1`, the half-maximal inhibitory concentration (IC50) in assay [3] is > 100 µM (not active). Broadly, the CC50 is the concentration giving 50% cytotoxicity. `COc1ccc(-c2csc(N(C)C(=O)c3ccccc3Cl)n2)cc1`: in assay [4], the half-maximal cytotoxic concentration (CC50) is > 50 µM (active). Consider `COC(=O)c1ccc2nc(NC(=O)CCS(=O)(=O)c3ccccc3)sc2c1`, for which the IC50 in assay [5] is given as 39 µM (not active); in assay [6], > 111 µM (not active). What is called EC50 is the concentration needed to bring the measured effect to its halfway point. For `CCCOc1ccc(-c2nc(Oc3ccccc3)c3ccccc3n2)cc1`, the figures for the EC50 in assay [7] and in assay [8] were 71.6 µM (active) and > 500 µM (not active), respectively.

(Values after ChEMBL document CHEMBL1201862, “PubChem BioAssay data set” (2004).)
